The subject of assay [1] is human epidermoid carcinoma cell line KB-8511. Kind of assay: Growth inhibition of KB-8511 cells (P-gp170-overexpressing multidrug-resistant subline), 72 h, methylene blue staining. The assay is classed as cell-based.
The subject of assay [2] is human epidermoid carcinoma cell line KB-31. As to the kind of experiment: Growth inhibition of KB-31 cells, 72 h, methylene blue staining. The assay is classed as cell-based. The note with it: KB-31, 72 h exposure. The protocol: Determination of IC50 Values Against Human Epidermoid Carcinoma Cell Lines KB-31
Cells are exposed to compounds for 72 h. Cell numbers are estimated by quantification of protein content of fixed cells by methylene blue staining.

Setting [3] is: KB-8511 (P-gp170-overexpressing), 72 h exposure.
[4] abbreviates: KB-8511, 72 h exposure, class symbols.

“And” between values parts separate entries of the source, which are not always exact repeats. Equal entries are not always repeated. Some results are limits rather than exact numbers.

For `C/C(=C\c1csc(C)n1)[C@@H]1C[C@@H]2OC(=O)NC2CCCC(C)[C@H](O)C(C)C(=O)C(C)(C)C(O)CC(=O)O1` (stereo partly shown) [Compound 1], the IC50 (in general, the concentration that gives 50% inhibition) was over 1000 nM in assay [1] (Homo sapiens, KB-8511, 72 h exposure, class symbols) and 500 to 750 nM in assay [2] (Homo sapiens, KB 3-1, 72 h, class symbols).

Consider `CC(=Cc1csc(C)n1)C1CC2OC(C)=NC2CCCC(C)C(O)C(C)C(=O)C(C)(C)C(O)CC(=O)O1` (stereo not shown) [Compound 4a], for which the IC50 in assay [1] (setting [3]), in assay [1] (setting [4]), in assay [2] and in assay [2] (class symbols) was over 1000 nM each time.

As for `CCC1=NC2CCCC(C)C(O)C(C)C(=O)C(C)(C)C(O)CC(=O)OC(C(C)=Cc3csc(C)n3)CC2O1` (stereo not shown) [Compound 4b], the IC50 is 5540 nM in assay [1] (setting [3]), over 1000 nM in assay [1] (setting [4]), 1860 nM in assay [2] and over 1000 nM in assay [2] (class symbols).

With `CCCCC1=NC2CCCC(C)C(O)C(C)C(=O)C(C)(C)C(O)CC(=O)OC(C(C)=Cc3csc(C)n3)CC2O1` (stereo not shown) [Compound 4c], the 50% inhibitory concentration (IC50) in assay [1] (setting [3]) was 923 nM and 998 nM; in assay [1] (setting [4]), 750 to 1000 nM; in assay [2], 344 nM and 386 nM; in assay [2] (class symbols), 250 to 500 nM.

On to `CC(=Cc1csc(C)n1)C1CC2OC(C(C)(C)C)=NC2CCCC(C)C(O)C(C)C(=O)C(C)(C)C(O)CC(=O)O1` (stereo not shown) [Compound 4d], for which the IC50 is 55 nM in assay [1] (setting [3]), 100 to 250 nM in assay [1] (setting [4]), 12 nM in assay [2] and 100 to 250 nM in assay [2] (class symbols).

Turning to `COC1=NC2CCCC(C)C(O)C(C)C(=O)C(C)(C)C(O)CC(=O)OC(C(C)=Cc3csc(C)n3)CC2O1` (stereo not shown) [Compound 4e], the IC50 was 5520 nM in assay [1] (setting [3]), over 1000 nM in assay [1] (setting [4]), 1270 nM in assay [2] and over 1000 nM in assay [2] (class symbols).

For the compound `C/C(=C\c1csc(C)n1)[C@@H]1C[C@@H]2OC(=O)NC2CCCC(C)[C@H](O)C(C)C(=O)C(C)(C)C(O)CC(=O)O1` (stereo partly shown) [Compound 4h], the IC50 was over 10000 nM in assay [1] (Homo sapiens, KB-8511 (P-gp170-overexpressing), 72 h exposure); 615 nM in assay [2] (Homo sapiens, KB 3-1, 72 h); 640 nM in assay [2].

For the compound `CC(=Cc1csc(C)n1)C1CC2OC(c3ccsc3)=NC2CCCC(C)C(O)C(C)C(=O)C(C)(C)C(O)CC(=O)O1` (stereo not shown) [Compound 5l], the IC50 in assay [1] (setting [3]) was 146 nM; in assay [1] (KB-8511, 72 h exposure, class symbols, listed as drawing 62), under 100 nM; in assay [2], 42 nM.

For `CC(=Cc1csc(C)n1)C1CC2OC(c3ccncc3)=NC2CCCC(C)C(O)C(C)C(=O)C(C)(C)C(O)CC(=O)O1` (stereo not shown) [Compound 6a], the 50% inhibitory concentration (IC50) in assay [1] (setting [3]) is 83 nM; in assay [1] (setting [4]), under 100 nM; in assay [2], 30 nM; in assay [2] (class symbols), under 100 nM.

For the compound `CC(=Cc1csc(C)n1)C1CC2OC(c3ccsc3)=NC2CCCC(C)C(O)C(C)C(=O)C(C)(C)C(O)CC(=O)O1` (stereo not shown) [drawing 72], the results for the IC50 in assay [1] (setting [4]) and in assay [2] (class symbols) were 100 to 250 nM and under 100 nM, respectively.

These data come from patent US20100022596A1, “EPOTHILONE ANALOGUES” (priority 2006, published 2010).
